Data taken from patent EP0470144B1, “BETA-HYDROXAMATE D-ASPARTIC ACID FOR TREATMENT OF VIRAL INFECTIONS AND TUMOURS” (priority 1989, dated 1990).

Key:
leucémie L1210 = test: Antitumour activity in the L1210 leukaemia model, survival; type: in vivo, souris B6D2F1/J; conditions: for Nombre d'animaux survivants: at 30 days
Text: L'activité antitumorale du DAH et du LAH a été étudiée sur le modèle de leucémie L1210. Les cellules leucémiques L1210 sont maintenues par passages intrapéritonéaux dans la souris B6D2F1/J mâle. […] La durée d'observation est de 30 jours.

[1] = LD50 comparison of DAH and LAH; conditions: in vivo

Compound: N[C@@H](CC(=O)NO)C(=O)O [LAH, L-aspartique acide β hydroxamate, reference compound]
- T/Cx100 (leucémie L1210; 1,5 g/kg x4/j, day 1): 50%
- Nombre d'animaux survivants (leucémie L1210; 1,5 g/kg x4/j, day 1): 0/5
- T/Cx100 (leucémie L1210; 1 g/kg x4/j, days 1,2): 65%
- Nombre d'animaux survivants (leucémie L1210; 1 g/kg x4/j, days 1,2): 0/5
- activité antitumorale (leucémie L1210; lighter protocol than for DAH): on n'a pas observé d'activité antitumorale
- toxicité (leucémie L1210; lighter protocol, treated animals died before the control group): toxicité très importante
- toxicité (leucémie L1210; same dosage conditions as DAH (1 g/kg, 4 times a day, 3 days)): très toxique
- DL 50 % [1]: 2,5 g/kg
